Converted amounts (≈) assume the structure as drawn. Where two headings read alike, the source gives them in different places.
Assays:
[1] = Approximate solubility of pomalidomide at 50°C in 96 solvent compositions (LC); assay type: physicochemical; details: organic solvent or mixture, thermodynamic from solid
Method: Pomalidomide Solid Form Preparations: Preparation of solid form of pomalidomide was conducted by equilibrating pomalidomide in 96 solvent compositions at 50°C and subjected to four conditions: slurry, evaporation, cooling, and precipitation. […] Solvents were then added, as binary gradients consisting of main solvent and co-solvent, to give a total of 150 µl, in each of the 96 vials (see Table 6 for the exact composition of each vial). […] For each of the evaporation, precipitation, and cooling experiments, approximately 8 mg of a solid sample of pomalidomide (e.g., Form A) was delivered to each position of the plate. Solvents were added to the master plate, as binary gradients consisting of main solvent and co-solvent, to give a total volume of 800 µT in each of the 96 vials (see Table 7 for the exact composition of each vial). The master plate, containing pomalidomide and solvents, was then equilibrated by stirring for 2 hours at 50°C. Upon completion of the equilibration cycle, the supernatant was aspirated into a four-tipped needle assembly and transferred to a sealed parallel filtration assembly. The mixtures were forced through the filtration assembly using positive pressure and the filtrates were collected in an array of glass vials. The filtered solutions were subsequently aspirated into the four-tipped assembly and aliquots were dispensed to an array of glass vials for subsequent LC analysis to determine approximate concentrations of pomalidomide in each solvent composition at the beginning of the experiments (Table 8). Both the four-tipped needle assembly and filtration assembly were maintained at the equilibration temperature of 50°C throughout the entire transfer process.
The results correspond to the solvent systems described in Table 7, equilibrated at 50°C for 2 hours. […] The approximate concentrations were determined by LC.

[2] = Solubility of pomalidomide in various solvents; assay type: physicochemical; details: ambient temperature
Method: Pomalidomide Polymorph Preparations: A weighed sample of pomalidomide (about 100 mg) was treated with 2 mL of a test solvent. The solvents used were either reagent or HPLC grade. The resulting mixture was agitated for at least 24 hours at 25°C. When all of the solids were dissolved by visual inspection, the estimated solubilities were calculated. The solubility was estimated from these experiments based on the total volume of solvent used to give a solution. The actual solubility may be greater than those calculated due to the use of a large amount of solvent or to a slow rate of dissolution. […] A known volume of filtrate was evaporated to dryness and the weight of the residue was measured. Equilibration and evaporation experiments were carried out by adding an excess of pomalidomide to 4 mL of a test solvent. The resulting mixture was agitated for at least 24 hours at 25°C and 50°C separately. Upon reaching equilibrium, the saturated solution was removed and allowed to evaporate slowly in an open vial under nitrogen at 25°C and 50°C respectively. The slurry resulting from the equilibration was filtered and dried in the air. Crystallizations using cooling methods were performed. The solid was dissolved in a solvent at an elevated temperature, approximately 80°C and allowed to cool to room temperature. […] Solids were isolated by decantation and allowed to dry in the air. Precipitation studies were carried out by solvent/anti-solvent combinations. The solid was dissolved in a solvent in which pomalidomide solubility was high, and then a selected solvent in which pomalidomide was highly insoluble (anti-solvent) was added to the solution. A precipitate formed immediately in some solvent/anti-solvent systems. […] The precipitate was then isolated by decantation and allowed to dry in the air. All of the samples generated as described in the polymorph preparation study were analyzed by XRPD. X PD was conducted on a Thermo ARL X'TRA X-ray powder diffractometer using Cu Kcc radiation at 1.54 A. The instrument was equipped with a fine focus X-ray tube. The voltage and amperage of X-ray generator were set at 45 kV and 40 mA, respectively. The divergence slices were set at 4 mm and 2 mm and the measuring slices were set at 0.5 mm and 0.2 mm. Diffracted radiation was detected by peitier-cooled Si(Li) solid state detector. A theta-two theta continuous scan at 2.40°/min (0.5 sec/0.02c step) from 1.5° 20 to 40° 2.0 was used. A sintered alumina standard was used to check the peak position. DSC analyses were performed on a TA instrument Q1000. Indium was used as calibration standards. Approximately 2-5 mg of sample was placed into a DSC pan and the weight was accurately recorded. The sample was heated under nitrogen at a rate of 10°C/min, up to a final temperature of 350°C. Melting points were reported as extrapolated onset temperature. TG analyses were performed on a TA instrument Q500. Calcium oxalate was used for performance check. Approximately 10-25 mg of sample was placed on a pan, accurately weighed and loaded into the TG furnace. The sample was heated under nitrogen at a rate of 10°C/min, up to a final temperature of 350°C. Morphology and particle size analysis of the samples were carried out on an Olympus microscope. The instrument was calibrated with USP standards. Hygroscopicity was determined on a Surface Measurement Systems DVS. Typically a sample size of 10-50 mg was loaded into the DVS instrument sample pan and the sample was analyzed on a DVS automated sorption analyzer at 25°C. The relative humidity was increased in 10% increments from 0% to 95% RH. The relative humidity was then decreased in a similar mariner to accomplish a full adsosption/desorption cycle. […]

Which solubility at 2 h ([1]; binary solvent mixture (main solvent and co-solvent), 50 °C, solvent system E8 of Table 7, read-out: Approximate Measured Solubility) does the source give for Nc1cccc2c1C(=O)N(C1CCC(=O)NC1=O)C2=O (stereo not drawn) [Pomalidomide, 4-amino-2-(2,6-dioxopiperidine-3-yl)isoindoline-1,3-dione] here?
The solubility at 2 h was 730 µg/mL (≈ 2670 µM).

And the solubility at 2 h ([1]; binary solvent mixture (main solvent and co-solvent), 50 °C, solvent system E9 of Table 7, read-out: Approximate Measured Solubility)?
Its solubility at 2 h is 1630 µg/mL (≈ 5970 µM).

What about the solubility at 2 h ([1]; binary solvent mixture (main solvent and co-solvent), 50 °C, solvent system E10 of Table 7, read-out: Approximate Measured Solubility) of the same molecule?
Its solubility at 2 h is 2310 µg/mL (≈ 8450 µM).

What about the solubility at 2 h ([1]; binary solvent mixture (main solvent and co-solvent), 50 °C, solvent system E11 of Table 7, read-out: Approximate Measured Solubility) of the same molecule?
Its solubility at 2 h is 2480 µg/mL (≈ 9080 µM).

What about the solubility at 2 h ([1]; binary solvent mixture (main solvent and co-solvent), 50 °C, solvent system E12 of Table 7, read-out: Approximate Measured Solubility) of the same molecule?
The solubility at 2 h was 950 µg/mL (≈ 3480 µM).

And the solubility at 2 h ([1]; binary solvent mixture (main solvent and co-solvent), 50 °C, solvent system F1 of Table 7, read-out: Approximate Measured Solubility)?
Its solubility at 2 h is 100 µg/mL (≈ 366 µM).

And the solubility at 2 h ([1]; binary solvent mixture (main solvent and co-solvent), 50 °C, solvent system F2 of Table 7, read-out: Approximate Measured Solubility)?
Its solubility at 2 h is 60 µg/mL (≈ 220 µM).

And the solubility at 2 h ([1]; binary solvent mixture (main solvent and co-solvent), 50 °C, solvent system F3 of Table 7, read-out: Approximate Measured Solubility)?
Its solubility at 2 h is 30 µg/mL (≈ 110 µM).

And the solubility at 2 h ([1]; binary solvent mixture (main solvent and co-solvent), 50 °C, solvent system F4 of Table 7, read-out: Approximate Measured Solubility)?
The solubility at 2 h was 10 µg/mL (≈ 36.6 µM).

What about the solubility at 2 h ([1]; binary solvent mixture (main solvent and co-solvent), 50 °C, solvent system F7 of Table 7, read-out: Approximate Measured Solubility) of the same molecule?
The solubility at 2 h was 40 µg/mL (≈ 146 µM).

And the solubility at 2 h ([1]; binary solvent mixture (main solvent and co-solvent), 50 °C, solvent system F8 of Table 7, read-out: Approximate Measured Solubility)?
The solubility at 2 h was 40 µg/mL (≈ 146 µM).

And the solubility at 2 h ([1]; binary solvent mixture (main solvent and co-solvent), 50 °C, solvent system F9 of Table 7, read-out: Approximate Measured Solubility)?
The solubility at 2 h was 130 µg/mL (≈ 476 µM).

What about the solubility at 2 h ([1]; binary solvent mixture (main solvent and co-solvent), 50 °C, solvent system F12 of Table 7, read-out: Approximate Measured Solubility) of the same molecule?
Its solubility at 2 h is 550 µg/mL (≈ 2010 µM).

What about the solubility at 2 h ([1]; binary solvent mixture (main solvent and co-solvent), 50 °C, solvent system G1 of Table 7, read-out: Approximate Measured Solubility) of the same molecule?
Its solubility at 2 h is 2690 µg/mL (≈ 9840 µM).

What about the solubility at 2 h ([1]; binary solvent mixture (main solvent and co-solvent), 50 °C, solvent system G2 of Table 7, read-out: Approximate Measured Solubility) of the same molecule?
The solubility at 2 h was 1650 µg/mL (≈ 6040 µM).

And the solubility at 2 h ([1]; binary solvent mixture (main solvent and co-solvent), 50 °C, solvent system G3 of Table 7, read-out: Approximate Measured Solubility)?
The solubility at 2 h was 700 µg/mL (≈ 2560 µM).

And the solubility at 2 h ([1]; binary solvent mixture (main solvent and co-solvent), 50 °C, solvent system G4 of Table 7, read-out: Approximate Measured Solubility)?
The solubility at 2 h was 230 µg/mL (≈ 842 µM).

And the solubility at 2 h ([1]; binary solvent mixture (main solvent and co-solvent), 50 °C, solvent system G5 of Table 7, read-out: Approximate Measured Solubility)?
The solubility at 2 h was 60 µg/mL (≈ 220 µM).

And the solubility at 2 h ([1]; binary solvent mixture (main solvent and co-solvent), 50 °C, solvent system G7 of Table 7, read-out: Approximate Measured Solubility)?
The solubility at 2 h was 30 µg/mL (≈ 110 µM).

And the solubility at 2 h ([1]; binary solvent mixture (main solvent and co-solvent), 50 °C, solvent system G8 of Table 7, read-out: Approximate Measured Solubility)?
Its solubility at 2 h is 410 µg/mL (≈ 1500 µM).

And the solubility at 2 h ([1]; binary solvent mixture (main solvent and co-solvent), 50 °C, solvent system G9 of Table 7, read-out: Approximate Measured Solubility)?
Its solubility at 2 h is 650 µg/mL (≈ 2380 µM).

What about the solubility at 2 h ([1]; binary solvent mixture (main solvent and co-solvent), 50 °C, solvent system G10 of Table 7, read-out: Approximate Measured Solubility) of the same molecule?
The solubility at 2 h was 2310 µg/mL (≈ 8450 µM).

What about the solubility at 2 h ([1]; binary solvent mixture (main solvent and co-solvent), 50 °C, solvent system G11 of Table 7, read-out: Approximate Measured Solubility) of the same molecule?
Its solubility at 2 h is 5180 µg/mL (≈ 19000 µM).

And the solubility at 2 h ([1]; binary solvent mixture (main solvent and co-solvent), 50 °C, solvent system G12 of Table 7, read-out: Approximate Measured Solubility)?
The solubility at 2 h was 5990 µg/mL (≈ 21900 µM).

What about the solubility at 2 h ([1]; binary solvent mixture (main solvent and co-solvent), 50 °C, solvent system H1 of Table 7, read-out: Approximate Measured Solubility) of the same molecule?
The solubility at 2 h was 380 µg/mL (≈ 1390 µM).

What about the solubility at 2 h ([1]; binary solvent mixture (main solvent and co-solvent), 50 °C, solvent system H2 of Table 7, read-out: Approximate Measured Solubility) of the same molecule?
Its solubility at 2 h is 240 µg/mL (≈ 878 µM).

And the solubility at 2 h ([1]; binary solvent mixture (main solvent and co-solvent), 50 °C, solvent system H3 of Table 7, read-out: Approximate Measured Solubility)?
The solubility at 2 h was 110 µg/mL (≈ 403 µM).

And the solubility at 2 h ([1]; binary solvent mixture (main solvent and co-solvent), 50 °C, solvent system H4 of Table 7, read-out: Approximate Measured Solubility)?
The solubility at 2 h was 40 µg/mL (≈ 146 µM).

What about the solubility at 2 h ([1]; binary solvent mixture (main solvent and co-solvent), 50 °C, solvent system H7 of Table 7, read-out: Approximate Measured Solubility) of the same molecule?
Its solubility at 2 h is 50 µg/mL (≈ 183 µM).

What about the solubility at 2 h ([1]; binary solvent mixture (main solvent and co-solvent), 50 °C, solvent system H8 of Table 7, read-out: Approximate Measured Solubility) of the same molecule?
The solubility at 2 h was 400 µg/mL (≈ 1460 µM).

And the solubility at 2 h ([1]; binary solvent mixture (main solvent and co-solvent), 50 °C, solvent system H10 of Table 7, read-out: Approximate Measured Solubility)?
Its solubility at 2 h is 1500 µg/mL (≈ 5490 µM).

And the solubility at 2 h ([1]; binary solvent mixture (main solvent and co-solvent), 50 °C, solvent system H11 of Table 7, read-out: Approximate Measured Solubility)?
Its solubility at 2 h is 1960 µg/mL (≈ 7170 µM).

And the solubility at 2 h ([1]; binary solvent mixture (main solvent and co-solvent), 50 °C, solvent system H12 of Table 7, read-out: Approximate Measured Solubility)?
The solubility at 2 h was 2060 µg/mL (≈ 7540 µM).

What about the solubility at 2 h ([1]; solvent system H9 of Table 7, read-out: Approximate Measured Solubility) of the same molecule?
The solubility at 2 h was 860 µg/mL (≈ 3150 µM).

What about the solubility at 2 h ([1]; solvent system A1 of Table 7, 50 °C, solvent system A1 of Table 7, read-out: Approximate Measured Solubility) of the same molecule?
Its solubility at 2 h is 2240 µg/mL (≈ 8200 µM).

And the solubility at 2 h ([1]; solvent system A2 of Table 7, 50 °C, solvent system A2 of Table 7, read-out: Approximate Measured Solubility)?
The solubility at 2 h was 8190 µg/mL (≈ 30000 µM).

And the solubility at 2 h ([1]; solvent system A3 of Table 7, 50 °C, solvent system A3 of Table 7, read-out: Approximate Measured Solubility)?
Its solubility at 2 h is 2430 µg/mL (≈ 8890 µM).

And the solubility at 2 h ([1]; solvent system A10 of Table 7, 50 °C, solvent system A10 of Table 7, read-out: Approximate Measured Solubility)?
Its solubility at 2 h is 1830 µg/mL (≈ 6700 µM).

What about the solubility at 2 h ([1]; solvent system A11 of Table 7, 50 °C, solvent system A11 of Table 7, read-out: Approximate Measured Solubility) of the same molecule?
The solubility at 2 h was 290 µg/mL (≈ 1060 µM).

What about the solubility at 2 h ([1]; solvent system A12 of Table 7, 50 °C, solvent system A12 of Table 7, read-out: Approximate Measured Solubility) of the same molecule?
Its solubility at 2 h is 80 µg/mL (≈ 293 µM).

What about the solubility ([2]; Methyl t-butyl ether) of the same molecule?
The solubility was 1030 µg/mL.

And the solubility ([2]; acetone, 25 °C, organic solvent or mixture, thermodynamic from solid, Acetone, read-out: Solubility)?
Its solubility is 1990 µg/mL.

And the solubility ([2]; acetonitrile, 25 °C, organic solvent or mixture, thermodynamic from solid, Acetonitrile, read-out: Solubility)?
The solubility was 1270 µg/mL.

And the solubility ([2]; ethanol/water (1:1), 25 °C, aqueous with cosolvent or surfactant or cyclodextrin, thermodynamic from solid, Ethanol/Water (1:1), read-out: Solubility)?
The solubility was 540 µg/mL.

What about the solubility ([2]; methyl ethyl ketone, 25 °C, organic solvent or mixture, thermodynamic from solid, Methyl ethyl ketone, read-out: Solubility) of the same molecule?
Its solubility is 1260 µg/mL.

What about the solubility ([2]; methyl t-butyl ether, 25 °C, organic solvent or mixture, thermodynamic from solid, Methyl t-butyl ether, read-out: Solubility) of the same molecule?
The solubility was < 1000 µg/mL.

And the solubility ([2]; methylene chloride, 25 °C, organic solvent or mixture, thermodynamic from solid, Methylene chloride, read-out: Solubility)?
Its solubility is 1450 µg/mL.

And the solubility ([2]; tetrahydrofuran, 25 °C, organic solvent or mixture, thermodynamic from solid, Tetrahydrofuran, read-out: Solubility)?
Its solubility is 5260 µg/mL.
